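Abbreviation: GI50, concentration required for 50% inhibition of growth. TGI is the concentration that stops growth completely.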
Legend:
Experiment in all cases: inhibition of tumour cell growth, NCI panel, 384-well format
[1] = system: SF-295 CNS
[2] = system: NCI-H322M lung
[3] = system: HOP-62 NSCLC
[4] = system: SN12C renal
[5] = system: 786-0 renal
[6] = system: MCF7 breast
[7] = system: M14 melanoma
[8] = system: SK-MEL-5 melanoma
[9] = system: SK-MEL-28 melanoma
[10] = system: HL-60(TB) leukemia
[11] = system: EKVX NSCLC
[12] = system: UACC-257 melanoma
[13] = system: SNB-75 CNS
[14] = system: LOX IMVI melanoma
[15] = system: A498 renal
[16] = system: UO-31 renal
[17] = system: NCI-H226 lung
[18] = system: RXF 393 renal
[19] = system: CAKI-1 renal
[20] = system: SW-620 colon
[21] = system: HT29 colon
[22] = system: SNB-19 CNS
[23] = system: NCI-H522 lung
[24] = system: COLO 205 colon
[25] = system: HCT-15 colon
[26] = system: NCI/ADR-RES ovarian
[27] = system: MDA-MB-468 breast
[28] = system: MDA-MB-435 melanoma
[29] = system: OVCAR-4 ovarian
[30] = system: A549 NSCLC
[31] = system: ACHN renal
[32] = system: MDA-MB-231 breast
[33] = system: IGROV1 ovarian
[34] = system: SF-268 CNS
[35] = system: DU-145 prostate
[36] = system: NCI-H460 NSCLC
[37] = system: PC-3 prostate
[38] = system: CCRF-CEM leukemia
[39] = system: SR leukemia
[40] = system: UACC-62 melanoma
[41] = system: OVCAR-5 ovarian
[42] = system: SK-OV-3 ovarian
[43] = system: SF-539 CNS
[44] = system: NCI-H23 lung
[45] = system: HCT-116 colon
[46] = system: KM12 colon
[47] = system: OVCAR-3 ovarian
[48] = system: HOP-92 NSCLC
[49] = system: OVCAR-8 ovarian
[50] = system: HS 578T breast
[51] = system: TK-10 renal
[52] = system: RPMI-8226 leukemia
[53] = system: BT-549 breast
[54] = system: MALME-3M melanoma
[55] = system: U251 glioblastoma
[56] = system: HCC-2998 colon
[57] = system: T-47D breast
[58] = system: MOLT-4 leukemia

In the case of `C=CC(=O)N1CCN(c2nc(=O)n(-c3c(C)ccnc3C(C)C)c3nc(-c4c(O)cccc4F)c(F)cc23)[C@@H](C)C1`, the GI50 [1] is reported as 33.4 µM, the TGI [1] is reported as > 88.3 µM and the GI50 [2] is reported as 44.6 µM. The TGI [2] was > 100 µM, the GI50 [3] was 0.0543 µM and the TGI [3] was 26 µM. For the same compound, the GI50 [4] was 50.3 µM, the TGI [4] was > 100 µM and the GI50 [5] was 21.4 µM. For the same compound, the TGI [5] was 44.4 µM, the GI50 [6] was 36.9 µM and the TGI [6] was > 100 µM. The GI50 [7] was 32.1 µM, the TGI [7] was > 79.9 µM and the GI50 [8] was 21.6 µM. For the same compound, the TGI [8] was 46.5 µM, the GI50 [9] was > 100 µM and the TGI [9] was > 100 µM. The GI50 [10] was 19.8 µM, the TGI [10] was 35.5 µM and the GI50 [11] was 37.1 µM. For the same compound, the TGI [11] was > 100 µM, the GI50 [12] was 37.1 µM and the TGI [12] was > 100 µM. It also gave a GI50 [13] of 54.2 µM, a TGI [13] of 97.5 µM and a GI50 [14] of 16.6 µM. The TGI [14] was 31.8 µM, the GI50 [15] was 31.1 µM and the TGI [15] was > 82.8 µM. The GI50 [16] was 69.7 µM, the TGI [16] was > 100 µM and the GI50 [17] was 20.5 µM. It also gave a TGI [17] of 52.2 µM, a GI50 [18] of 4.34 µM and a TGI [18] of 14.3 µM. The GI50 [19] was 30.9 µM, the TGI [19] was > 89.7 µM and the GI50 [20] was 36.8 µM. For the same compound, the TGI [20] was > 100 µM, the GI50 [21] was 33.2 µM and the TGI [21] was > 100 µM. The GI50 [22] was 53.9 µM, the TGI [22] was > 100 µM and the GI50 [23] was 21.1 µM. The TGI [23] was 43.2 µM, the GI50 [24] was 24.7 µM and the TGI [24] was 58.8 µM. For the same compound, the GI50 [25] was 27.2 µM, the TGI [25] was > 65.3 µM and the GI50 [26] was > 100 µM. The TGI [26] was > 100 µM, the GI50 [27] was 13 µM and the TGI [27] was 37.2 µM. The GI50 [28] was 62.4 µM, the TGI [28] was > 100 µM and the GI50 [29] was 43.8 µM. The TGI [29] was > 100 µM, the GI50 [30] was 32.5 µM and the TGI [30] was > 85.6 µM. The GI50 [31] was 30.2 µM, the TGI [31] was > 68.2 µM and the GI50 [32] was 24.3 µM. For the same compound, the TGI [32] was 57 µM, the GI50 [33] was 27 µM and the TGI [33] was 71 µM. It also gave a GI50 [34] of 27.8 µM, a TGI [34] of 79.8 µM and a GI50 [35] of 25.3 µM. The TGI [35] was 74.7 µM, the GI50 [36] was 28.2 µM and the TGI [36] was 65.4 µM. The GI50 [37] was 35.9 µM, the TGI [37] was > 94.4 µM and the GI50 [38] was 18.8 µM. For the same compound, the TGI [38] was 34.2 µM, the GI50 [39] was 6.68 µM and the TGI [39] was 18.9 µM. The GI50 [40] was 43.5 µM, the TGI [40] was > 100 µM and the GI50 [41] was > 100 µM. The TGI [41] was > 100 µM, the GI50 [42] was 46.5 µM and the TGI [42] was > 100 µM. It also gave a GI50 [43] of 17.4 µM, a TGI [43] of 33.3 µM and a TGI [44] of 0.592 µM. For the same compound, the GI50 [45] was 17.5 µM, the TGI [45] was 35.6 µM and the GI50 [46] was 31.5 µM. For the same compound, the TGI [46] was > 75.8 µM, the GI50 [47] was 22 µM and the TGI [47] was 50.8 µM. For the same compound, the GI50 [48] was 48.6 µM, the TGI [48] was > 100 µM and the GI50 [49] was 19.7 µM. It also gave a TGI [49] of 36.6 µM, a GI50 [50] of 13.9 µM and a TGI [50] of 35.1 µM. The GI50 [51] was 46.2 µM, the TGI [51] was > 100 µM and the GI50 [52] was 16.6 µM. It also gave a TGI [52] of 32.5 µM, a GI50 [53] of 15.7 µM and a TGI [53] of 35.2 µM. For the same compound, the GI50 [54] was 14.7 µM, the TGI [54] was 35.3 µM and the GI50 [55] was 22 µM. It also gave a TGI [55] of 52.6 µM, a GI50 [56] of 15 µM and a TGI [56] of 29.6 µM. The GI50 [57] was > 81.3 µM, the TGI [57] was > 100 µM and the GI50 [58] was 9.94 µM. For the same compound, the TGI [58] was 22.2 µM.

— PubChem BioAssay (NCI)
